In patent US10487093B2, “Heterocyclic compounds, in particular 2-oxo-4,4,5,5,6,6,7,7-octahydrobenzoxazole derivatives, and their use as antibacterial compounds” (priority 2016, dated 2019):
Converted amounts (≈) assume the structure as drawn.

Columns and labels:
[1] = test system: Streptococcus pneumoniae ATCC 49619; experiment: MIC, broth microdilution (CLSI) versus planktonic bacteria; type: cell-based; settings: ATCC49619; Streptococcus pneumoniae ATCC 49619; 16-20 h; mode of three independent experiments; read-out: MIC, Sp ATCC 49619
[2] = test system: Pseudomonas aeruginosa ATCC 27853; experiment: as above; type: cell-based; settings: ATCC27853; Pseudomonas aeruginosa ATCC 27853; 16-20 h; mode of three independent experiments; read-out: MIC, Pa ATCC 27853
[3] = test system: Enterobacter cloacae NCTC 13406; experiment: as above; type: cell-based; settings: NCTC13406; Enterobacter cloacae NCTC 13406; 16-20 h; mode of three independent experiments; read-out: MIC, Ecl NCTC 13406
[4] = test system: Acinetobacter baumannii NCTC 13420; experiment: as above; type: cell-based; settings: NCTC13420; Acinetobacter baumannii NCTC 13420; 16-20 h; mode of three independent experiments; read-out: MIC, Ab NCTC 13420
[5] = test system: Escherichia coli ATCC 25922; experiment: as above; type: cell-based; settings: ATCC25922; Escherichia coli ATCC 25922; 16-20 h; mode of three independent experiments; read-out: MIC, Ec ATCC 25922
[6] = test system: Staphylococcus aureus ATCC 29213; experiment: as above; type: cell-based; settings: ATCC29213; Staphylococcus aureus ATCC 29213; 16-20 h; mode of three independent experiments; read-out: MIC, Sa ATCC 29213
[7] = test system: Haemophilus influenzae ATCC 49247; experiment: as above; type: cell-based; settings: ATCC49247; Haemophilus influenzae ATCC 49247; 16-20 h; mode of three independent experiments; read-out: MIC, Hi ATCC 49247
[8] = test system: human hepatic cell line (HepG2 ATCC HB-8065); experiment: Human cell viability assay (CellTiter-Glo); settings: Homo sapiens, HepG2, 24 h, read-out: IC50 (μg/mL) HepG2

| SMILES | MIC [1] [µg/mL] | MIC [2] [µg/mL] | MIC [3] [µg/mL] | MIC [4] [µg/mL] | MIC [5] [µg/mL] | MIC [6] [µg/mL] | MIC [7] [µg/mL] | IC50 [8] [µg/mL] |
| --- | --- | --- | --- | --- | --- | --- | --- | --- |
| COc1ccc2ccc(=O)n(CCN[C@H]3CC[C@H]4[C@@H](C3)OC(=O)N4c3ncc4c(n3)NC(=O)CO4)c2n1 [Compound 16] | < 1 | 1 to 10 (≈ 1.97 to 19.7 µM) | 1 to 10 (≈ 1.97 to 19.7 µM) | 1 to 10 (≈ 1.97 to 19.7 µM) | < 1 | < 1 | < 1 | > 100 |
| COc1ncc2ccc(=O)n(CCN[C@H]3CC[C@H]4[C@@H](C3)OC(=O)N4c3ccc4c(n3)NC(=O)CO4)c2n1 [Compound 17, (3aS,6S,7aR)-6-[(2-{2-methoxy-7-oxo-7H,8H-pyrido[2,3-d]pyrimidin-8-yl}ethyl)amino]-3-{3-oxo-2H,3H,4H-pyrido[3,2-b][1,4]oxazin-6-yl}-octahydro-1,3-benzoxazol-2-one] | 10 to 100 (≈ 19.7 to 197 µM) | 10 to 100 (≈ 19.7 to 197 µM) | 10 to 100 (≈ 19.7 to 197 µM) | 10 to 100 (≈ 19.7 to 197 µM) | 1 to 10 (≈ 1.97 to 19.7 µM) | 1 to 10 (≈ 1.97 to 19.7 µM) | 10 to 100 (≈ 19.7 to 197 µM) | 10 to 100 (≈ 19.7 to 197 µM) |
| N#Cc1ccc2ccc(=O)n(CCN(CCN)[C@@H]3CC[C@@H]4[C@@H](C3)OC(=O)N4c3ccc4c(n3)NC(=O)CO4)c2c1 [Compound 19, 1-(2-{[(3aR,6R,7aR)-2-oxo-3-{3-oxo-2H,3H,4H-pyrido[3,2-b][1,4]oxazin-6-yl}-octahydro-1,3-benzoxazol-6-yl](2-aminoethyl)amino}ethyl)-2-oxo-1,2-dihydroquinoline-7-carbonitrile] | > 100 | 10 to 100 (≈ 18.4 to 184 µM) | > 100 | 10 to 100 (≈ 18.4 to 184 µM) | 10 to 100 (≈ 18.4 to 184 µM) | < 1 | 10 to 100 (≈ 18.4 to 184 µM) | > 100 |
| O=C1COc2ccc(N3C(=O)O[C@@H]4C[C@H](NCCn5c(=O)ccc6ccc(O)cc65)CC[C@H]43)nc2N1 [Compound 20, 1-(2-{[(3aR,6R,7aR)-2-oxo-3-{3-oxo-2H,3H,4H-pyrido[3,2-b][1,4]oxazin-6-yl}-octahydro-1,3-benzoxazol-6-yl]amino}ethyl)-7-hydroxy-1,2-dihydroquinolin-2-one] | 10 to 100 (≈ 20.3 to 203 µM) | 1 to 10 (≈ 2.03 to 20.3 µM) | 1 to 10 (≈ 2.03 to 20.3 µM) | 10 to 100 (≈ 20.3 to 203 µM) | < 1 | < 1 | < 1 | > 100 |
| COc1ccc2ccc(=O)n(CCN[C@@H]3CC[C@@H]4[C@H](C3)OC(=O)N4c3ccc4c(n3)NC(=O)CO4)c2n1 [Compound 25, 1-(2-{[(3aR,6R,7aS)-2-oxo-3-{3-oxo-2H,3H,4H-pyrido[3,2-b][1,4]oxazin-6-yl}-octahydro-1,3-benzoxazol-6-yl]amino}ethyl)-7-methoxy-1,2-dihydro-1,8-naphthyridin-2-one] | < 1 | 1 to 10 (≈ 1.97 to 19.7 µM) | < 1 | < 1 | < 1 | < 1 | < 1 | 10 to 100 (≈ 19.7 to 197 µM) |
| COc1ncc2ccc(=O)n(CCN[C@@H]3CC[C@@H]4[C@@H](C3)OC(=O)N4c3ncc4c(n3)NC(=O)CO4)c2n1 [Compound 33, (3aR,6R,7aR)-6-[(2-{2-methoxy-7-oxo-7H,8H-pyrido[2,3-d]pyrimidin-8-yl}ethyl)amino]-3-{7-oxo-6H,7H,8H-pyrimido[5,4-b][1,4]oxazin-2-yl}-octahydro-1,3-benzoxazol-2-one] | < 1 | 10 to 100 (≈ 19.7 to 197 µM) | 1 to 10 (≈ 1.97 to 19.7 µM) | 10 to 100 (≈ 19.7 to 197 µM) | < 1 | < 1 | 1 to 10 (≈ 1.97 to 19.7 µM) |  |
| COc1cnc2ccc(=O)n(CCN[C@@H]3CC[C@@H]4[C@@H](C3)OC(=O)N4c3ncc4c(n3)NC(=O)CO4)c2c1 [Compound 41, 1-(2-{[(3aR,6R,7aR)-2-oxo-3-{7-oxo-6H,7H,8H-pyrimido[5,4-b][1,4]oxazin-2-yl}-octahydro-1,3-benzoxazol-6-yl]amino}ethyl)-7-methoxy-1,2-dihydro-1,5-naphthyridin-2-one] | < 1 | 1 to 10 (≈ 1.97 to 19.7 µM) | 1 to 10 (≈ 1.97 to 19.7 µM) | 10 to 100 (≈ 19.7 to 197 µM) | < 1 | < 1 |  |  |
| COc1ncc2ccc(=O)n(CCN[C@H]3CC[C@H]4[C@H](C3)OC(=O)N4c3ccc4c(n3)NC(=O)CO4)c2n1 [Compound 52, (3aS,6S,7aS)-6-[(2-{2-methoxy-7-oxo-7H,8H-pyrido[2,3-d]pyrimidin-8-yl}ethyl)amino]-3-{3-oxo-2H,3H,4H-pyrido[3,2-b][1,4]oxazin-6-yl}-octahydro-1,3-benzoxazol-2-one] | < 1 | 10 to 100 (≈ 19.7 to 197 µM) | 1 to 10 (≈ 1.97 to 19.7 µM) | 1 to 10 (≈ 1.97 to 19.7 µM) | < 1 | < 1 | < 1 |  |
| COc1cccc(-c2cccc(CN[C@H]3CC[C@H]4[C@H](C3)OC(=O)N4c3ccc4c(n3)NC(=O)CO4)c2)n1 [Compound 73, (3aS,6S,7aS)-6-({[3-(6-methoxypyridin-2-yl)phenyl]methyl}amino)-3-{3-oxo-2H,3H,4H-pyrido[3,2-b][1,4]oxazin-6-yl}-octahydro-1,3-benzoxazol-2-one] | 1 to 10 (≈ 1.99 to 19.9 µM) | 10 to 100 (≈ 19.9 to 199 µM) | 1 to 10 (≈ 1.99 to 19.9 µM) | 1 to 10 (≈ 1.99 to 19.9 µM) | < 1 | < 1 | 1 to 10 (≈ 1.99 to 19.9 µM) |  |
| COc1cnc2ccc(=O)n(CCCN[C@H]3CC[C@H]4[C@H](C3)OC(=O)N4c3ccc4c(n3)NC(=O)CS4)c2c1 [Compound 96, 1-(3-{[(3aS,6S,7aS)-2-oxo-3-{3-oxo-2H,3H,4H-pyrido[3,2-b][1,4]thiazin-6-yl}-octahydro-1,3-benzoxazol-6-yl]amino}propyl)-7-methoxy-1,2-dihydro-1,5-naphthyridin-2-one] |  | 1 to 10 (≈ 1.86 to 18.6 µM) | < 1 | < 1 |  | < 1 | < 1 |  |
| O=C1COc2ccc(N3C(=O)O[C@H]4C[C@@H](NCCn5c(=O)ccc6ccc(OCCN7CCOCC7)cc65)CC[C@@H]43)nc2N1 [Compound 97, 1-(2-{[(3aS,6S,7aS)-2-oxo-3-{3-oxo-2H,3H,4H-pyrido[3,2-b][1,4]oxazin-6-yl}-octahydro-1,3-benzoxazol-6-yl]amino}ethyl)-7-[2-(morpholin-4-yl)ethoxy]-1,2-dihydroquinolin-2-one] | 1 to 10 (≈ 1.65 to 16.5 µM) | 10 to 100 (≈ 16.5 to 165 µM) | 10 to 100 (≈ 16.5 to 165 µM) | 1 to 10 (≈ 1.65 to 16.5 µM) | 1 to 10 (≈ 1.65 to 16.5 µM) | < 1 | 1 to 10 (≈ 1.65 to 16.5 µM) |  |
| O=C1COc2ccc(N3C(=O)O[C@H]4C[C@@H](NCCn5c(=O)ccc6ccc(OC7CNC7)cc65)CC[C@@H]43)nc2N1 [Compound 103, 1-(2-{[(3aS,6S,7aS)-2-oxo-3-{3-oxo-2H,3H,4H-pyrido[3,2-b][1,4]oxazin-6-yl}-octahydro-1,3-benzoxazol-6-yl]amino}ethyl)-7-(azetidin-3-yloxy)-1,2-dihydroquinolin-2-one] | 1 to 10 (≈ 1.83 to 18.3 µM) | 1 to 10 (≈ 1.83 to 18.3 µM) |  | 10 to 100 (≈ 18.3 to 183 µM) | 1 to 10 (≈ 1.83 to 18.3 µM) |  |  |  |
| N#Cc1ccc2c(ccc(=O)n2CCN[C@H]2CC[C@H]3[C@H](C2)OC(=O)N3c2ccc3c(n2)NC(=O)CO3)c1 [Compound 107, 1-(2-{[(3aS,6S,7aS)-2-oxo-3-{3-oxo-2H,3H,4H-pyrido[3,2-b][1,4]oxazin-6-yl}-octahydro-1,3-benzoxazol-6-yl]amino}ethyl)-2-oxo-1,2-dihydroquinoline-6-carbonitrile] | 1 to 10 (≈ 2 to 20 µM) | > 100 | 10 to 100 (≈ 20 to 200 µM) | 1 to 10 (≈ 2 to 20 µM) | 1 to 10 (≈ 2 to 20 µM) | 1 to 10 (≈ 2 to 20 µM) | 1 to 10 (≈ 2 to 20 µM) |  |
